Laboratory results published in the NIST ThermoML archive (doi:10.1016/j.fluid.2010.05.019).

Tests used:
[1] = wn = mass fraction of the nth substance listed; conditions: 298.15 K, 101 kPa, Liquid, Alternating current cell with electrodes
[2] = 298.15 K, Liquid; for electrical conductivity: 101 kPa, Alternating current cell with electrodes; for viscosity / mass density: 101.33 kPa; for viscosity: Cone and plate viscometry; for mass density: Pycnometric method

O [water] + C1CC[NH2+]C1.CC(=O)[O-]
Conditions | electrical conductivity [S/m]
[1], w1 = 1 | 0.0001

C1CC[NH2+]C1.CCCCCCCCC(=O)[O-] [pyrrolidinium nonanoate] + O
[1]
Conditions | electrical conductivity [S/m]
w2 = 0 | 0.064
w2 = 0.0476 | 0.073
w2 = 0.0909 | 0.122
w2 = 0.1667 | 0.295
w2 = 0.2 | 0.392
w2 = 0.2593 | 0.579
w2 = 0.3103 | 0.754
w2 = 0.3548 | 0.915
w2 = 0.3939 | 1.07
w2 = 0.4595 | 1.29
w2 = 0.5 | 1.44
w2 = 0.5556 | 1.61
w2 = 0.5833 | 1.68
w2 = 0.6 | 1.73
w2 = 0.6154 | 1.76
w2 = 0.6296 | 1.79
w2 = 0.6429 | 1.81
w2 = 0.6552 | 1.84
w2 = 0.6667 | 1.85
w2 = 0.7143 | 1.87
w2 = 0.8065 | 1.63
w2 = 0.902 | 1.08

Cc1ccc[n+](C)c1C.O=C[O-] [1,2,3-trimethylpyridinium formate]
[2]
Conditions | electrical conductivity [S/m] | mass density [kg/m3] | viscosity [mPa·s]
– | 0.68 | 1167.6 | 10

O=C[O-].c1ccc2[nH+]cccc2c1 [quinolinium formate] + O
[1]
Conditions | electrical conductivity [S/m]
w2 = 0 | 0.415
w2 = 0.0566 | 0.621
w2 = 0.0909 | 0.854
w2 = 0.1667 | 1.38
w2 = 0.2 | 1.59
w2 = 0.2593 | 2.01
w2 = 0.3103 | 2.47
w2 = 0.3548 | 2.84
w2 = 0.3939 | 3.1
w2 = 0.4444 | 3.49
w2 = 0.4595 | 3.59
w2 = 0.5 | 3.81
w2 = 0.5652 | 4.11
w2 = 0.6 | 4.23
w2 = 0.6552 | 4.3
w2 = 0.7059 | 4.26
w2 = 0.75 | 4.12
w2 = 0.8 | 3.94
w2 = 0.8571 | 3.37
w2 = 0.9 | 2.75

Cc1cccc[n+]1C.O=C[O-] [1,2-dimethylpyridinium formate]
[2]
Conditions | electrical conductivity [S/m] | mass density [kg/m3] | viscosity [mPa·s]
– | 1.04 | 1020.9 | 2.61

Cc1cccc[n+]1C.O=C[O-] [1,2-dimethylpyridinium formate] + O
[1]
Conditions | electrical conductivity [S/m]
w2 = 0 | 1.04
w2 = 0.051 | 1.37
w2 = 0.0908 | 1.64
w2 = 0.1665 | 2.21
w2 = 0.2854 | 3.27
w2 = 0.333 | 3.77
w2 = 0.4114 | 4.52
w2 = 0.4441 | 4.74
w2 = 0.4997 | 5.26
w2 = 0.5451 | 5.56
w2 = 0.6151 | 5.98
w2 = 0.6549 | 6.16
w2 = 0.7056 | 6.23
w2 = 0.7617 | 6
w2 = 0.7998 | 5.68
w2 = 0.857 | 4.85
w2 = 0.8748 | 4.51
w2 = 0.8888 | 4.21
w2 = 0.8999 | 3.93
w2 = 0.909 | 3.7

O=C[O-].c1ccc2[nH+]cccc2c1 [quinolinium formate]
[2]
Conditions | electrical conductivity [S/m] | mass density [kg/m3] | viscosity [mPa·s]
– | 0.415 | 1153 | 8.2

O [water] + C1CC[NH2+]C1.CCCCCCC(=O)[O-]
Conditions | electrical conductivity [S/m]
[1], w1 = 1 | 0.0001

C1CC[NH2+]C1.CCCCCCCC(=O)[O-] [pyrrolidinium octanoate] + O
[1]
Conditions | electrical conductivity [S/m]
w2 = 0 | 0.08
w2 = 0.0475 | 0.223
w2 = 0.0908 | 0.347
w2 = 0.1664 | 0.635
w2 = 0.1997 | 0.795
w2 = 0.2589 | 1.06
w2 = 0.31 | 1.31
w2 = 0.3544 | 1.58
w2 = 0.3935 | 1.7
w2 = 0.459 | 1.93
w2 = 0.4996 | 2.06
w2 = 0.5551 | 2.18
w2 = 0.5996 | 2.23
w2 = 0.6292 | 2.23
w2 = 0.6548 | 2.22
w2 = 0.7011 | 2.17
w2 = 0.7558 | 2.03
w2 = 0.7724 | 1.97
w2 = 0.8037 | 1.83
w2 = 0.8212 | 1.68

O [water] + C1CC[NH2+]C1.O=[N+]([O-])[O-]
Conditions | electrical conductivity [S/m]
[1], w1 = 1 | 0.0001

O [water] + CCCC(C)[NH3+].O=C[O-]
Conditions | electrical conductivity [S/m]
[1], w1 = 1 | 0.0001

C1CC[NH2+]C1.CCCCCC(=O)[O-] [pyrrolidinium hexanoate]
[2]
Conditions | electrical conductivity [S/m] | mass density [kg/m3] | viscosity [mPa·s]
– | 0.204 | 988 | 27.4

Cc1ccc[n+](C)c1C.O=C[O-] [1,2,3-trimethylpyridinium formate] + O
[1]
Conditions | electrical conductivity [S/m]
w2 = 0 | 0.68
w2 = 0.0476 | 0.837
w2 = 0.0909 | 0.963
w2 = 0.1666 | 1.33
w2 = 0.1999 | 1.48
w2 = 0.2592 | 1.88
w2 = 0.3103 | 2.31
w2 = 0.3547 | 2.69
w2 = 0.4117 | 3.23
w2 = 0.4594 | 3.62
w2 = 0.4999 | 3.95
w2 = 0.5555 | 4.37
w2 = 0.5999 | 4.65
w2 = 0.6551 | 4.74
w2 = 0.7014 | 4.75
w2 = 0.7499 | 4.75
w2 = 0.7999 | 4.51
w2 = 0.8571 | 3.85
w2 = 0.9 | 3.13
w2 = 0.95 | 1.93

C1CC[NH2+]C1.CCCCCCCC(=O)[O-] [pyrrolidinium octanoate]
[2]
Conditions | electrical conductivity [S/m] | mass density [kg/m3] | viscosity [mPa·s]
– | 0.08 | 949.5 | 36.5

CC[NH+](C(C)C)C(C)C.O=C[O-] [ethyldiisopropylammonium formate]
[2]
Conditions | electrical conductivity [S/m] | mass density [kg/m3] | viscosity [mPa·s]
– | 0.586 | 1014.4 | 18

CC[NH+](C(C)C)C(C)C.O=C[O-] [ethyldiisopropylammonium formate] + O
[1]
Conditions | electrical conductivity [S/m]
w2 = 0 | 0.586
w2 = 0.0625 | 0.88
w2 = 0.1176 | 1.13
w2 = 0.1667 | 1.39
w2 = 0.2105 | 1.67
w2 = 0.25 | 1.96
w2 = 0.3182 | 2.4
w2 = 0.3478 | 2.63
w2 = 0.4231 | 3.11
w2 = 0.4643 | 3.36
w2 = 0.5 | 3.51
w2 = 0.5588 | 3.86
w2 = 0.5833 | 3.93
w2 = 0.6053 | 3.96
w2 = 0.625 | 3.97
w2 = 0.6429 | 3.97
w2 = 0.6591 | 3.96
w2 = 0.7 | 3.97
w2 = 0.7115 | 3.97
w2 = 0.7222 | 3.96

C1CC[NH2+]C1.CCCCCCC(=O)[O-] [pyrrolidinium heptanoate]
[2]
Conditions | electrical conductivity [S/m] | mass density [kg/m3]
– | 0.186 | 972.1
